Data set [1] can be described thus: Pharmacokinetics in Balb/c mice, single intravenous bolus administration. It is filed as in vivo. Conditions: intravenous bolus 1 mg/kg, formulation 10DMA/15EtOH/35PEG300/40D5W, gender F.
A short description of the next data set: in vivo. The following applies: female, Balb/c, mouse, po, 10 mg/kg; for AUC(0-t): AUClast; for half-life: T½.
The target of a further data set is Mnk1 (Homo sapiens (Human), UniProt Q9BUB5). In words: biochemical.
For data set [2] the following is noted: female, Balb/c, mouse, in vivo, po, 10 mg/kg.
The target of another data set is Mnk2 (Homo sapiens (Human), UniProt Q9HBH9). In words: biochemical.
Sequence of Mnk2 (Q9HBH9 whole entry): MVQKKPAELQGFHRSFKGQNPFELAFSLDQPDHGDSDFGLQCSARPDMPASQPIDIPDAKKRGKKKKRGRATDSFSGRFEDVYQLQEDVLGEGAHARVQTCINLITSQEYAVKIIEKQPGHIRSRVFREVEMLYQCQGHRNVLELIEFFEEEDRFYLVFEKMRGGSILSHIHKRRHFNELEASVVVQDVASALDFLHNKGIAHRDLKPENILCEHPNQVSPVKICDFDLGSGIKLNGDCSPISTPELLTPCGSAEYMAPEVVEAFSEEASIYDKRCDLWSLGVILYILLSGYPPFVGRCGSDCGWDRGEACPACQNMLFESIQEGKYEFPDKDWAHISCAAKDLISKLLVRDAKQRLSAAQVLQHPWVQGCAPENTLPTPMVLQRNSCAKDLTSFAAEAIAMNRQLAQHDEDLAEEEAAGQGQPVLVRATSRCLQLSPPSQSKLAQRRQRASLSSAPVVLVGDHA

Sequence of Mnk1 (Q9BUB5 whole entry): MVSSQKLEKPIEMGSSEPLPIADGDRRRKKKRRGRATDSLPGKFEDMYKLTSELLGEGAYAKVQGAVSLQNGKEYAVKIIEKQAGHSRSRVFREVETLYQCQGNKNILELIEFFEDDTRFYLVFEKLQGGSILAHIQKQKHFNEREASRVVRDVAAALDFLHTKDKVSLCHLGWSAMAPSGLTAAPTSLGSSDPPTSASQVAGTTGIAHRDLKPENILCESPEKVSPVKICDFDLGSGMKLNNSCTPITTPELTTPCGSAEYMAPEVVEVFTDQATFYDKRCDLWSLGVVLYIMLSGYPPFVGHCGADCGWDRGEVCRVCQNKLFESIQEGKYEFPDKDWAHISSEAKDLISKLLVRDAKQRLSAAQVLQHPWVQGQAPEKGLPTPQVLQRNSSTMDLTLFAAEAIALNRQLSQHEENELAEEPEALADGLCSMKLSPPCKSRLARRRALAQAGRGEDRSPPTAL

For the compound `Nc1cc(Nc2cc(Cl)c3n(c2=O)C2(CCCC2)NC3=O)ncn1` [Cpd. No. 94, 6-[(6-aminopyrimidin-4-yl)amino]-8-chloro-spiro[2H-imidazo[1,5-a]pyridine-3,1′-cyclopentane]-1,5-dione], in data set [1] (female, mouse, plasma, read-out: AUCINF_obs), the AUC(0-inf) stood at 812 ng·h/mL. Besides, the half-life in data set [1] (female, mouse, plasma, read-out: T½ (converted)) was 5.81 h. Also, the Vd in data set [1] (female, mouse, plasma, read-out: Vss) worked out at 12.2 L/kg. Further, the Cl_obs in data set [1] is 20.5 mL/min/kg. Further, in the data set “in vivo”, the AUC(0-t) (in general, the area under the concentration-time curve up to a stated or last time point) was 6070 ng·h/mL; the Cmax (commonly the highest concentration seen after dosing) worked out at 1800 ng/mL; the Tmax (usually the time at which the peak concentration occurs) amounted to 0.5 h; the half-life is 2 h. The IC50 (commonly the point on the concentration scale where inhibition reaches its midpoint) at Mnk1 was < 0.01 µM. Moreover, the Tlast in data set [2] is reported as 8 h.
In the case of `Cl.Nc1cc(Nc2cc(Cl)c3n(c2=O)C2(CCC(F)(F)CC2)NC3=O)ncn1` [Cpd. No. 99, 6-[(6-aminopyrimidin-4-yl)amino]-8-chloro-4′,4′-difluoro-spiro[2H-imidazo[1,5-a]pyridine-3,1′-cyclohexane]-1,5-dione hydrochloride], on Mnk2, the IC50 is < 0.01 µM. In “in vivo”, the AUC(0-t) turned out to be 1380 ng·h/mL, the Cmax was found to be 400 ng/mL, the Tmax was found to be 0.3 h and the half-life is 1.6 h. Also, the IC50 against Mnk1 was < 0.01 µM. In data set [2], this compound registered a Tlast of 8 h.
In the case of `Cc1cc(Nc2cc(N)ncn2)c(=O)n2c1C(=O)NC2(C)C.Cl` [Cpd. No. 102, 6-((6-aminopyrimidin-4-yl)amino)-3,3,8-trimethyl-2,3-dihydroimidazo[1,5-a]pyridine-1,5-dione hydrochloride], the IC50 at Mnk2 was < 0.01 µM. Besides, in the data set “in vivo”, the highest level (Cmax) was 1800 ng/mL, the Tmax was found to be 0.3 h and the half-life was 1.4 h.
In the case of `CC1(C2CCCC2)N(C#N)C(=O)c2ccc(Nc3cc(N)ncn3)c(=O)n21` (stereo not shown) [Cpd. No. 118, 6-[(6-aminopyrimidin-4-yl)amino]-3-cyclopentyl-3-methyl-1,5-dioxo-imidazo[1,5-a]pyridine-2-carbonitrile], the IC50 against Mnk2 was < 0.01 µM.
